In US20260132132A1, “3A,4,5,6-TETRAHYDRO-1 H-PYRAZOLO[3,4-C]PYRIDIN-7(7AH)-ONE DERIVATIVES AS FACTOR XIIA INHIBITORS” (KALVISTA PHARMACEUTICALS LIMITED, priority 2022, published 2026):

How the values were obtained:
[1] = target: T1, Human Factor XIIa (hFXIIa) (Homo sapiens, UniProt P00748); assay: Determination of Human Factor XIIa (hFXIIa) inhibition, fluorogenic substrate IC50 assay; type: biochemical; settings: fluorogenic substrate H-DPro-Phe-Arg-AFC at Km, 25° C., read-out: Human FXIIa IC50
T1 construct: purchased Enzyme Research Laboratories
T1 sequence (P00748 373-615 limits assumed): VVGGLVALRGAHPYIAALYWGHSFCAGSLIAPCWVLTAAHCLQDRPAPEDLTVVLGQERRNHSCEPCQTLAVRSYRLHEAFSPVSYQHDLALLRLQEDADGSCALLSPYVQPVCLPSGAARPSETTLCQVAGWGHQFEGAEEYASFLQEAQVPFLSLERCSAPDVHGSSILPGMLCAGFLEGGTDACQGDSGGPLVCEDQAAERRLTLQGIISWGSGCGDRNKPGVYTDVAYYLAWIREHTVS
T1 sequence (P00748 20-372 partner limits assumed): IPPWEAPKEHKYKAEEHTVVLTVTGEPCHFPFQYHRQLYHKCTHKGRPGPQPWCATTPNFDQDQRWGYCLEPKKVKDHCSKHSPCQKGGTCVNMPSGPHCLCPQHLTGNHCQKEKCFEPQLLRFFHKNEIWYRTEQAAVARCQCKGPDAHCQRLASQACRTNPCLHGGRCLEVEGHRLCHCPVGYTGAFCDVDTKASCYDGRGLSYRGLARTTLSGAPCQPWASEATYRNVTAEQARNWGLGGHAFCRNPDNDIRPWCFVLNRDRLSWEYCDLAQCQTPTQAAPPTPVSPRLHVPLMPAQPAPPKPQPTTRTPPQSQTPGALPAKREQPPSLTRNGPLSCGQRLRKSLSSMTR
Method: Determination of Human Factor XIIa (hFXIIa) inhibition
The Km for the cleavage of the substrate by hFXIIa was determined by standard transformation of the Michaelis-Menten equation, with subsequent inhibition assays performed at substrate Km concentration.

FXa = FXa (Homo sapiens, UniProt P00742); assay: Related protease inhibition: FXa, fluorogenic substrate; type: biochemical; settings: fluorogenic substrate at Km, 25° C.; H1-H3 = % activity at 40 μM
Chain of FXa (P00742 235-488 limits assumed): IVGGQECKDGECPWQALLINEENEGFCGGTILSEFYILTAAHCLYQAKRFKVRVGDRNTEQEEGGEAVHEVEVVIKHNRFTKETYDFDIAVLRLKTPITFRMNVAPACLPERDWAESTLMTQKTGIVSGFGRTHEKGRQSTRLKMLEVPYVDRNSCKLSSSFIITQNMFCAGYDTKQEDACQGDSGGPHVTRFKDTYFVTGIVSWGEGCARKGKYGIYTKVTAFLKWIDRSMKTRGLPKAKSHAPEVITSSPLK
Chain of FXa (P00742 41-179 partner limits assumed): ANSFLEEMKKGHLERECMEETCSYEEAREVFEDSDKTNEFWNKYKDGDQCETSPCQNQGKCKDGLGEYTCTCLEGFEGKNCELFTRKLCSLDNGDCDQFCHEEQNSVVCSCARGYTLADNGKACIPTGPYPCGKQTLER
Method: Human serine protease enzyme Plasma Kallikrein, KLK1, FXa, Plasmin, Thrombin and Trypsin were assayed for enzymatic activity using an appropriate fluorogenic substrate at Km concentration, FXIa at fixed substrate concentration of 100 μM and various concentrations of the test compound.

In the case of `CCNC(=O)c1nn(-c2cccc(Cl)c2)c2c1CCN(c1ccc(OC)c(N3CCCC3=O)c1)C2=O` [Example 1401, 1-(3-chlorophenyl)-N-ethyl-6-(4-methoxy-3-(2-oxopyrrolidin-1-yl)phenyl)-7-oxo-4,5,6,7-tetrahydro-1H-pyrazolo[3,4-c]pyridine-3-carboxamide], the IC50 [1] is reported as 1 to 3 µM and the IC50 (FXa) is reported as over 40 µM.

Compound `CCNC(=O)c1nn(-c2cccc(Cl)c2)c2c1CCN(c1ccc(OC)c(N3C(=O)CC4CC43)c1)C2=O` (stereo not shown) [Example 1402, 1-(3-chlorophenyl)-N-ethyl-6-(4-methoxy-3-(3-oxo-2-azabicyclo[3.1.0]hexan-2-yl)phenyl)-7-oxo-4,5,6,7-tetrahydro-1H-pyrazolo[3,4-c]pyridine-3-carboxamide] has an IC50 [1] of 3 to 10 µM and an IC50 (FXa) of over 40 µM.

`CN1CCc2ccc(N3CCc4c(CNS(C)(=O)=O)nn(-c5cccc(Cl)c5)c4C3=O)cc2C1=O` [Example 1403, N-((1-(3-chlorophenyl)-6-(2-methyl-1-oxo-1,2,3,4-tetrahydroisoquinolin-7-yl)-7-oxo-4,5,6,7-tetrahydro-1H-pyrazolo[3,4-c]pyridin-3-yl)methyl)methanesulfonamide] showed an IC50 [1] of 1 to 3 µM and an IC50 (FXa) of 3 to 10 µM.

`CN1CCc2ccc(N3CCc4c(C(=O)N[C@@H](CO)C5CC5)nn(-c5cccc(Cl)c5)c4C3=O)cc2C1=O` [Example 1404, (R)-1-(3-chlorophenyl)-N-(1-cyclopropyl-2-hydroxyethyl)-6-(2-methyl-1-oxo-1,2,3,4-tetrahydroisoquinolin-7-yl)-7-oxo-4,5,6,7-tetrahydro-1H-pyrazolo[3,4-c]pyridine-3-carboxamide] showed an IC50 [1] of 0.1 to 0.3 µM and an IC50 (FXa) of over 40 µM.

`Cc1ccncc1CNC(=O)c1nn(-c2cccc(Cl)c2F)c2c1CCN(c1ccc3c(c1)CN(CCO)CC3)C2=O` [Example 2002, 1-(3-Chloro-2-fluorophenyl)-6-(2-(2-hydroxyethyl)-1,2,3,4-tetrahydroisoquinolin-7-yl)-N-((4-methylpyridin-3-yl)methyl)-7-oxo-4,5,6,7-tetrahydro-1H-pyrazolo[3,4-c]pyridine-3-carboxamide] showed an IC50 [1] of 0.01 to 0.1 µM and an IC50 (FXa) of over 40 µM.

Compound `CN1CCc2ccc(N3CCc4c(C(=O)NCC5CC5)nn(-c5cccc(Cl)c5F)c4C3=O)cc2C1=O` [Example 2004, 1-(3-chloro-2-fluorophenyl)-N-(cyclopropylmethyl)-6-(2-methyl-1-oxo-1,2,3,4-tetrahydroisoquinolin-7-yl)-7-oxo-4,5,6,7-tetrahydro-1H-pyrazolo[3,4-c]pyridine-3-carboxamide] has an IC50 [1] of 0.1 to 0.3 µM and an IC50 (FXa) of over 40 µM.

For `CN1CCc2ccc(N3CCc4c(C(=O)NCC5CC5)nn(-c5cccc(C#N)c5)c4C3=O)cc2C1=O` [Example 2005, 1-(3-cyanophenyl)-N-(cyclopropylmethyl)-6-(2-methyl-1-oxo-1,2,3,4-tetrahydroisoquinolin-7-yl)-7-oxo-4,5,6,7-tetrahydro-1H-pyrazolo[3,4-c]pyridine-3-carboxamide], the IC50 [1] was 0.3 to 1 µM and the IC50 (FXa) was over 40 µM.

Compound `CN1CCc2ccc(N3CCc4c(C(=O)NCC5CC5)nn(-c5cccc(C(N)=O)c5)c4C3=O)cc2C1=O` [Example 2006, 1-(3-carbamoylphenyl)-N-(cyclopropylmethyl)-6-(2-methyl-1-oxo-1,2,3,4-tetrahydroisoquinolin-7-yl)-7-oxo-4,5,6,7-tetrahydro-1H-pyrazolo[3,4-c]pyridine-3-carboxamide] has an IC50 [1] of 10 to 40 µM and an IC50 (FXa) of over 40 µM.

Compound `Cc1ccc(-n2nc(C(=O)NCc3cnccc3C)c3c2C(=O)N(c2ccc4c(c2)CN(CCO)CC4)CC3)cc1Cl` [Example 2007, 1-(3-chloro-4-methylphenyl)-6-(2-(2-hydroxyethyl)-1,2,3,4-tetrahydroisoquinolin-7-yl)-N-((4-methylpyridin-3-yl)methyl)-7-oxo-4,5,6,7-tetrahydro-1H-pyrazolo[3,4-c]pyridine-3-carboxamide] has an IC50 [1] of 0.1 to 0.3 µM and an IC50 (FXa) of over 40 µM.

For `Cc1cccc(-n2nc(C(=O)NCc3cnccc3C)c3c2C(=O)N(c2ccc4c(c2)CN(CCO)CC4)CC3)c1` [Example 2008, 6-(2-(2-hydroxyethyl)-1,2,3,4-tetrahydroisoquinolin-7-yl)-N-((4-methylpyridin-3-yl)methyl)-7-oxo-1-(m-tolyl)-4,5,6,7-tetrahydro-1H-pyrazolo[3,4-c]pyridine-3-carboxamide], the IC50 [1] was 0.01 to 0.1 µM and the IC50 (FXa) was 3 to 10 µM.

For `Cc1ccncc1CNC(=O)c1nn(-c2cccc(C(F)(F)F)c2)c2c1CCN(c1ccc3c(c1)CN(CCO)CC3)C2=O` [Example 2009, 6-(2-(2-hydroxyethyl)-1,2,3,4-tetrahydroisoquinolin-7-yl)-N-((4-methylpyridin-3-yl)methyl)-7-oxo-1-(3-(trifluoromethyl)phenyl)-4,5,6,7-tetrahydro-1H-pyrazolo[3,4-c]pyridine-3-carboxamide], the IC50 [1] was 0.1 to 0.3 µM and the IC50 (FXa) was over 40 µM.

In the case of `Cc1ccncc1CNC(=O)c1nn(-c2cccc(C#N)c2)c2c1CCN(c1ccc3c(c1)CN(CCO)CC3)C2=O` [Example 2010, 1-(3-cyanophenyl)-6-(2-(2-hydroxyethyl)-1,2,3,4-tetrahydroisoquinolin-7-yl)-N-((4-methylpyridin-3-yl)methyl)-7-oxo-4,5,6,7-tetrahydro-1H-pyrazolo[3,4-c]pyridine-3-carboxamide], the IC50 [1] is reported as 0.1 to 0.3 µM and the IC50 (FXa) is reported as over 40 µM.

Work on `Cc1cc(CNC(=O)c2nn(-c3cccc(C#N)c3)c3c2CCN(c2ccc4c(c2)C(=O)N(C)CC4)C3=O)nn1C` [Example 2012, 1-(3-cyanophenyl)-N-((1,5-dimethyl-1H-pyrazol-3-yl)methyl)-6-(2-methyl-1-oxo-1,2,3,4-tetrahydroisoquinolin-7-yl)-7-oxo-4,5,6,7-tetrahydro-1H-pyrazolo[3,4-c]pyridine-3-carboxamide] yielded an IC50 [1] of 0.3 to 1 µM and an IC50 (FXa) of over 40 µM.

Compound `CN1CCc2ccc(N3CCc4c(C(=O)NCC5CC5)nn(-c5cc(Cl)cc(C#N)c5)c4C3=O)cc2C1=O` [Example 2013, 1-(3-chloro-5-cyanophenyl)-N-(cyclopropylmethyl)-6-(2-methyl-1-oxo-1,2,3,4-tetrahydroisoquinolin-7-yl)-7-oxo-4,5,6,7-tetrahydro-1H-pyrazolo[3,4-c]pyridine-3-carboxamide] has an IC50 [1] of 3 to 10 µM and an IC50 (FXa) of over 40 µM.

`CN1CCc2ccc(N3CCc4c(C(=O)NCC5CC5)nn(-c5cccc(Cl)n5)c4C3=O)cc2C1=O` [Example 2020, 1-(6-Chloropyridin-2-yl)-N-(cyclopropylmethyl)-6-(2-methyl-1-oxo-1,2,3,4-tetrahydroisoquinolin-7-yl)-7-oxo-4,5,6,7-tetrahydro-1H-pyrazolo[3,4-c]pyridine-3-carboxamide] was tested, and the IC50 [1] was 0.1 to 0.3 µM and the IC50 (FXa) was over 40 µM.

With `CCNC(=O)c1nn(-c2cc(C)cc(CN)c2)c2c1CCN(c1ccc3c(c1)C(=O)N(C)CC3)C2=O` [Example 2024, 1-(3-(aminomethyl)-5-methylphenyl)-N-ethyl-6-(2-methyl-1-oxo-1,2,3,4-tetrahydroisoquinolin-7-yl)-7-oxo-4,5,6,7-tetrahydro-1H-pyrazolo[3,4-c]pyridine-3-carboxamide] the IC50 [1] was 0.01 to 0.1 µM and the IC50 (FXa) was over 40 µM.

`Cc1cc(CN)cc(-n2nc(C(=O)O)c3c2C(=O)N(c2ccc4c(c2)C(=O)N(C)CC4)CC3)c1` [Example 2025, 1-(3-(aminomethyl)-5-methylphenyl)-6-(2-methyl-1-oxo-1,2,3,4-tetrahydroisoquinolin-7-yl)-7-oxo-4,5,6,7-tetrahydro-1H-pyrazolo[3,4-c]pyridine-3-carboxylic acid] showed an IC50 [1] of 0.01 to 0.1 µM and an IC50 (FXa) of 10 to 40 µM.

`CCNC(=O)c1nn(-c2cncc(C)c2)c2c1CCN(c1ccc3c(c1)C(=O)N(C)CC3)C2=O` [Example 2027, N-ethyl-6-(2-methyl-1-oxo-1,2,3,4-tetrahydroisoquinolin-7-yl)-1-(5-methylpyridin-3-yl)-7-oxo-4,5,6,7-tetrahydro-1H-pyrazolo[3,4-c]pyridine-3-carboxamide] was tested, and the IC50 [1] was 3 to 10 µM and the IC50 (FXa) was over 40 µM.

`CCNC(=O)c1nn(-c2ccc(C)cn2)c2c1CCN(c1ccc3c(c1)C(=O)N(C)CC3)C2=O` [Example 2028, N-ethyl-6-(2-methyl-1-oxo-1,2,3,4-tetrahydroisoquinolin-7-yl)-1-(5-methylpyridin-2-yl)-7-oxo-4,5,6,7-tetrahydro-1H-pyrazolo[3,4-c]pyridine-3-carboxamide] gave an IC50 [1] of 10 to 40 µM and an IC50 (FXa) of over 40 µM.

`CCNC(=O)c1nn(-c2cc(Cl)ccc2C)c2c1CCN(c1ccc3c(c1)C(=O)N(C)CC3)C2=O` [Example 2029, 1-(5-chloro-2-methylphenyl)-N-ethyl-6-(2-methyl-1-oxo-1,2,3,4-tetrahydroisoquinolin-7-yl)-7-oxo-4,5,6,7-tetrahydro-1H-pyrazolo[3,4-c]pyridine-3-carboxamide] gave an IC50 [1] of 10 to 40 µM and an IC50 (FXa) of over 40 µM.
